Test results published in patent publication US7091240B2, “Tubulin binding ligands and corresponding prodrug constructs” (Oxigene, Inc., priority 2000, dated 2006).
Like-named read-outs stand apart in the source and are kept apart here.

Columns and labels:
[1] = system: BXPC-3; experiment: In vitro cytotoxicity against human cancer cell lines (SRB); type: cell-based; conditions: pancreas; 48 hours incubation
Method: (§1) Briefly, the cell suspensions, diluted according to the particular cell type and the expected target cell density (5,000–40,000 cells per well based on cell growth characteristics), were added by pipet (100 μl) to 96-well microtiter plates. Inoculates were allowed a preincubation time of 24–28 hours at 37° C. for stabilization. Incubation with the inhibitor compounds lasted for 48 hours in 5% CO2 atmosphere and 100% humidity. Determination of cell growth was performed by in situ fixation of cells, followed by staining with a protein-binding dye sulforhodamine B (SRB), which binds to the basic amino acids of cellular macromolecules. The solubilized stain was measured spectrophotometrically.
(§2) Compounds were evaluated in terms of growth inhibitory activity against several human cancer cell lines including: central nervous system (“CNS”, SF-295 or SF-268), pancreas (BXPC-3), non-small cell lung cancer (“lung-NSC”, NCI-H460), breast (MCF-7), colon (KM20L2), ovarian (OVCAR-3), pharyngeal (FADU), or prostate (DU-145).

[2] = system: DU-145; experiment: as above; type: cell-based; conditions: prostate; 48 hours incubation
Method: as §1, §2

[3] = system: KM20L2; experiment: as above; type: cell-based; conditions: colon; 48 hours incubation
Method: as §1, §2

[4] = system: MCF-7; experiment: as above; type: cell-based; conditions: breast; 48 hours incubation
Method: as §1, §2

[5] = system: NCI-H460; experiment: as above; type: cell-based; conditions: lung-NSC; 48 hours incubation
Method: as §1, §2

[6] = system: SF-295; experiment: as above; type: cell-based; conditions: CNS; 48 hours incubation; unstarred values
Method: as §1, §2

[7] = system: murine hemangioendothelioma MHEC-5T cell line; experiment: In vitro antiproliferative activity, MTT assay; type: cell-based
Method: The following compounds were tested for in vitro antiproliferative activity against the murine hemangioendothelioma MHEC-5T cell line using a standard MTT assay (see Mosman, J. Immunol. Methods, 1983). In actively proliferating cells, an increase in MTT conversion is spectrophotometrically quantified by the reduction of MTT (3-[4,5-dimethylthiazol-2-yl]-2,5-diphenyl tetrazolium bromide) to the insoluble formazan dye by enzymes associated with metabolic activity. A compound with growth inhibitory activity will cause a reduction in dye formation relative to cells exposed to a vehicle control.

[8] = system: human breast cancer MDA-MB-231 model; experiment: Tumor growth control in vivo; conditions: 400 mg/kg i.p. in saline, SCID mice, Days 1, 2 and 6 post-treatment
Method: The antitumor activity of BbT prodrug 8 was assessed in female tumor-bearing mice by measuring its effects on tumor volume in comparison with CA4P. A human breast cancer MDA-MB-231 model was established by subcutaneous injection of cultured M DA-MB-231 cells (1×10^6) in Fox Chase CB-17 SCID mice.
Mice were administered CA4P or BbT prodrug in saline carrier at 400 mg/kg by intraperitoneal (i.p.) injection after 1 week of MDA-MB inoculation. Saline carrier only was used as the control treatment. On Days 1, 2 and 6 post-treatment, tumors were measured by width and length by a caliber. Tumor volume was calculated according to the following formula: Length×Width^2×0.4. The relative anti-tumor effects are illustrated in FIG. 9.

[9] = system: purified tubulin; experiment: Inhibition of tubulin polymerization assay; type: biochemical, bovine; conditions: for IC50: read-out: IC50 In Vitro Inhibition of Tubulin Polymerization, 1.5 mg/ml tubulin, preincubated 15 minutes at 37° C., GTP-induced
Method: IC50 values for tubulin polymerization were determined according to a previously described procedure (Bai et al, Cancer Research, 1996). Purified tubulin is obtained from bovine brain cells as described in Hamel and Lin (Hamel and Lin, Biochemistry, 1984). Various amounts of inhibitor were preincubated for 15 minutes at 37° C. with purified tubulin. After the incubation period, the reaction was cooled and GTP was added to induce tubulin polymerization. Polymerization was then monitored in a Gilford spectrophotometer at 350 nm. The final reaction mixtures (0.25 ml) contained 1.5 mg/ml tubulin, 0.6 mg/ml microtubule-associated proteins (MAPs), 0.5 mM GTP, 0.5 mM MgCl2, 4% DMSO and 0.1M 4-morpholineethanesulfonate buffer (MES, pH 6.4).

[10] = system: MHEC-5T hemangioendothelioma tumor model; experiment: Inhibition of tumor blood flow, Fluorescent Bead Assay; type: in vivo; conditions: single i.p. injection, 24 hours post-treatment, SCID mice
Method: The antivascular effects of the diphosphate BbF, Oxi-com 223, was assessed in tumor-bearing mice using a Fluorescent Bead Assay. A MHEC-5T hemangioendothelioma tumor model was established by subcutaneous injection of 0.5×10^6 cultured transformed cell murine myocardial vascular endothelial cell line (“MHEC5-T”) cells into the right flank of Fox Chase CB-17 Severe Combined Immunodeficient (“SCID”) mice. […] At 24 hours post-treatment, mice were injected intravenously with 0.25 ml of diluted FluoSphere beads (1:6 in physiological saline) in the tail vein, sacrificed after 3 minutes, and tumor was excised for cryosectioning. Tumor cryosections at a thickness of 8 μm were directly examined using quantitative fluorescent microscopy. Blood vessels were indicated by blue fluorescence from injected beads. For quanitification, image analysis of 3 sections from three tumors treated in each group were examined and vascular shutdown was expressed as vessel area (mm^2) per tumor tissue area (mm^2) as a percentage of the control (“% VAPM”). Compounds of the present invention were tested for antivascular effects at two dosages (100 mg/kg and 10 mg/kg) using the same Fluorescent Bead Assay as in the previous experiment.

[11] = system: SF-268; experiment: In vitro cytotoxicity against human cancer cell lines (SRB); type: cell-based; conditions: CNS; 48 hours incubation; values marked *
Method: as §1, §2

[12] = system: FADU; experiment: as above; type: cell-based; conditions: pharyngeal; 48 hours incubation
Method: as §1, with “The activity of several compounds were tested against a variety of cell lines derived from human tumors, using an assay system similar to a procedure previously described (Monks et al, J. Natl. Cancer Inst., 1991). Briefly,” for “Briefly,”
as §2

[13] = system: OVCAR-3; experiment: as above; type: cell-based; conditions: ovarian; 48 hours incubation
Method: as §1, with “The activity of several compounds were tested against a variety of cell lines derived from human tumors, using an assay system similar to a procedure previously described (Monks et al, J. Natl. Cancer Inst., 1991). Briefly,” for “Briefly,”
as §2

[14] = In vitro cytotoxicity; type: cell-based
[15] = 5 days, read-out: IC50 at 5 days
[16] = read-out: IC50 at 1 hour, 1 hour

IC50 [9]	Structure (SMILES)	GI50 for Cell Line BXPC-3 [1]	GI50 for Cell Line DU-145 [2]	GI50 for Cell Line NCI-H460 [5]	IC50 [7, 15]	IC50 [7, 16]	also measured
–	COc1ccc2c(C(=O)c3cc(OC)c(OC)c(OC)c3)c(-c3ccc(OC)c(OP(=O)([O-])[O-])c3)sc2c1.[Na+].[Na+] [Oxi-com 140, 8, 3-(3′,4′,5′-trimethoxybenzoyl)-2-(3′-sodiumphosphate-4′-methoxyphenyl)-6-methoxybenzo[b]thiophene]	0.35 µg/mL	0.045 µg/mL	0.035 µg/mL	129 nM	> 11200 nM	GI50 for Cell Line KM20L2 [3]: 0.22 µg/mL; GI50 for Cell Line MCF-7 [4]: 0.028 µg/mL; GI50 for Cell Line SF-295 [6]: 0.11 µg/mL; effect on tumor growth (tumor volume) relative to control treatment [8]: significantly inhibited tumor growth
–	COc1ccc(/C=C\c2cc(OC)c(OC)c(OC)c2)cc1OP(=O)([O-])[O-].[Na+].[Na+] [CA4P, Combretastatin A-4 Disodium Phosphate Prodrug, reference compound]	–	–	–	2 nM	800 nM	effect on tumor growth (tumor volume) relative to control treatment [8]: significantly inhibited tumor growth
1 to 4 µM	COc1ccc2c(-c3ccc(OC)c(O)c3O)coc2c1 [Compound 28, 3-(2′,3′-hydroxy-4′-methoxyphenyl)-6-methoxybenzo[b]furan]	–	–	–	–	–	–
1 to 4 µM	COc1ccc2c(-c3ccc(OC)c(O)c3O)c(C(=O)c3cc(OC)c(OC)c(OC)c3)oc2c1 [Compound 31, 3-(2″,3″-dihydroxy-4″-methoxyphenyl)-6-methoxy-2-(3′,4′,5′-trimethoxybenzoyl)benzo[b]furan]	–	–	–	–	–	–
–	COc1ccc2c(C(=O)c3cc(OC)c(OC)c(OC)c3)c(-c3ccc(OC)c(OP(=O)([O-])[O-])c3)oc2c1.[Na+].[Na+] [Oxi-com 223, 33, 3-(3′,4′,5′-trimethoxybenzoyl)-2-(3′-disodiumphosphate-4′-methoxyphenyl)-6-methoxybenzo[b]furan]	–	–	–	> 1400 nM	> 50000 nM	% VAPM at 10 mg/kg dose ([10]; 10 mg/kg): 10%; % VAPM at 100 mg/kg dose ([10]; 100 mg/kg): 51%
–	C#C/C=C\C#CC(=O)c1cc(OC)c(OC)c(OC)c1 [Enediyne, 47, 1-(3,4,5-trimethoxybenzoyl)-(Z)-3-ene-1,5-hexadiyne]	1.4 µg/mL	0.54 µg/mL	1.7 µg/mL	–	–	inhibition of tubulin polymerization (in words) [9]: excellent inhibition of tubulin polymerization; GI50 for Cell Line SF-295 [6]: 1.7 µg/mL; GI50 for Cell Line FADU [12]: 0.95 µg/mL; GI50 for Cell Line OVCAR-3 [13]: 0.53 µg/mL; cytotoxicity (in words) [14]: strong cytotoxicity

Structure (SMILES)	IC50 [9]	GI50 for Cell Line BXPC-3 [1]	GI50 for Cell Line DU-145 [2]	GI50 for Cell Line NCI-H460 [5]	IC50 [7, 15]	IC50 [7, 16]	also measured
COc1ccc2c(C(=O)c3cc(OC)c(OC)c(OC)c3)c(-c3ccc(OC)c(OP(=O)([O-])[O-])c3)oc2c1.[Na+].[Na+] [Oxi-com 195, 19, 2-(3″-disodiumphosphate-4″-methoxyphenyl)-6-methoxy-3-(3′,4′,5′-trimethoxybenzoyl)benzo[b]furan]	4 to 10 µM	2.3 µg/mL	0.05 µg/mL	0.05 µg/mL	100 nM	> 25000 nM	GI50 for Cell Line KM20L2 [3]: 3.8 µg/mL; GI50 for Cell Line MCF-7 [4]: 0.042 µg/mL; GI50 for Cell Line SF-268 [11]: *0.062 μg/ml
